Test results: US4159328A, “Tetrahydro-1,3,5-thiadiazin-4-one derivative” (Nihon Nohyaku Co., Ltd., priority 1977, dated 1979)
Read-outs that look alike come from different tables or passages of the source.

Assays:
Assay type in all cases: in vivo
[1] = test system: larvae of 28-spotted lady beetle (Epilachna vigintioctopunctana Fabricius); assay: Test Example 8: insecticidal activity against larvae of 28-spotted lady beetle; details: 120 h
Procedure: Insecticidal activity against larvae of 28-spotted lady beetle (Epilachna vigintioctopunctana Fabricius).
Testing method: Leaflets of tomato grown in a greenhouse were dipped in a test composition of 100 ppm concentration for 30 seconds and after that the leaflets were dried by air. In a Petri dish covered on the bottom with a piece of filter paper, were introduced 1 ml of water and three treated tomato leaflets. After having been infested with seven second-instar larvae of 28-spotted lady beetle, the Petri dish was left standing in a constant temperature cabinet at 25° C. Five days after the treatment, the dead-and-survival was inspected to calculate the mortality (2-replication test).

[2] = test system: larvae of brown planthopper (Nilaparvata lugens Stahl); assay: Test Example 1: insecticidal activity against larvae of brown planthopper; details: third-instar larvae, 25° C.
How it was run: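 Rice seedlings at 1.5-leaf stage were dipped for 30 s in a 400 ppm test composition, air-dried, and infested with third-instar N. lugens larvae. After holding at 25 °C, mortality was scored 5 or 7 days post-treatment from three replicates.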

[3] = test system: larvae of bug. (Togo hemipterus Scott); assay: Test Example 9: insecticidal activity against larvae of bug; details: 120 h, 10 ppm, first-instar larvae, 25° C., five days, read-out: Mortality
Procedure: Insecticidal activity against larvae of bug. (Togo hemipterus Scott).
Test method: Into a glass tube (1.6 cm in internal diameter and 9 cm in length), was added 1 ml of a test composition in 10 ppm concentration just to moisten the absorbent cotton. Five rice seeds and five first-instar larvae were introduced into the glass tube and the tube end was covered with a piece of Japanese paper. The glass tube was kept in a constant temperature cabinet at 25° C. Five days after treatment, the dead-and-survival was inspected to calculate the mortality (3-replication test).

[4] = test system: larvae of house mosquito (Culex pipiens pallens Coquillett); assay: Test Example 6: insecticidal activity to larvae of house mosquito; details: 120 h
How it was run: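 Twenty first-instar Culex pipiens pallens larvae placed with feed in test composition diluted in deionized water to 10 ppm. Kept at 25 °C, and mortality counted five days after treatment.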

[5] = test system: larvae of green rice leafhopper (Nephotettix cincticeps Uhler); assay: Test Example 5: activity against larvae of green rice leafhopper; details: 168 h, 400 ppm, second-instar larvae, 25° C., seven days after treatment, read-out: Mortality
How it was run: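 Rice seedlings at 1.5 leaf age dipped 30 seconds in 400 ppm test composition, air-dried, then infested with five second-instar larvae. Kept at 25° C; mortality scored seven days after treatment, three replicates.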

[6] = test system: larvae of white-backed planthopper (Sogatella furcifera Horvath); assay: Test Example 2: insecticidal activity against larvae of white-backed planthopper; details: 168 h, 400 ppm, first-instar larvae, 25° C., seven days after treatment, read-out: Mortality
How it was run: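 Rice seedlings at 1.5-leaf stage were dipped 30 s in 400 ppm test composition, air-dried, and infested with five first-instar larvae. Tubes were held at 25°C, and mortality was scored at 7 days from triplicate tests.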

[7] = test system: cirrus red mite (Panonychus citri McGregor); assay: Test Example 4: activity to citrus red mite (Rothamstead method); set-up: concentration or dose not given beside the values; details: two days after treatment, 25° C.; 2880 min
Procedure: Activity to cirrus red mite (Panonychus citri McGregor).
Testing method: The test was performed by Rothamstead method. A test composition was sprayed by means of a spray gun over grapefruit leaves infested with citrus red mites. After air-drying the grapefruit was left standing in a constant temperature cabinet at 25° C. Two days after the treatment, the number of survived mites was counted to calculate the mortality.

[8] = test system: two-spotted spider mite (Tetranychus urticae Koch); assay: Test Example 3: activity to two-spotted spider mite
Source text: Activity to two-spotted spider mite (Tetranychus urticae Koch).
Testing method: Two-spotted spider mites were set free on the pot-planted soybean in a greenhouse. On the next day, a test composition of 1,000 ppm concentration was sprayed over the soybean by means of a spray gun. Two days or five days after the treatment, dead-and-survival was inspected to calculate the mortality.

[9] = 120 h, 1,000 ppm, 5 days after treatment
[10] = 100 ppm, second-instar larvae, 25° C., five days, read-out: Mortality
[11] = 48 h, 1,000 ppm, 2 days after treatment

| SMILES | mortality at 100 ppm [1] [%] | mortality at 400 ppm ([2]; 120 h, 5 days after treatment) [%] | mortality at 10 ppm [3] [%] | mortality at 10 ppm [4] [%] | mortality at 400 ppm [5] [%] | mortality at 400 ppm [6] [%] | Mortality [7] [%] | mortality at 1000 ppm [8, 9] [%] | mortality at 100 ppm [1, 10] [%] | mortality at 400 ppm ([2]; 168 h, 7 days after treatment) [%] | mortality at 1000 ppm [8, 11] [%] |
| --- | --- | --- | --- | --- | --- | --- | --- | --- | --- | --- | --- |
| CCN1C(=O)N(c2ccccc2)CSC1=NC(C)C [Compound 127] | 80 | 100 | 100 | 100 |  |  |  |  |  |  |  |
| CCC(C)N=C1SCN(c2ccccc2)C(=O)N1C(C)CC (stereo not drawn) [Compound 151] | 100 | 100 | 80 | 100 | 100 |  |  |  |  |  |  |
| C=CCN1C(=O)N(c2ccccc2)CSC1=NC(C)CC (stereo not drawn) [Compound 142] | 100 | 100 | 100 | 100 | 100 |  |  |  |  |  |  |
| CCCN1C(=O)N(c2ccccc2)CSC1=NC(C)(C)C [Compound 137] | 50 | 80 | 50 | 100 |  |  |  |  |  |  |  |
| CC(C)N=C1SCN(c2ccccc2)C(=O)N1C(C)C [Compound 144, 2-Isopropylimino-3-isopropyl-5-phenyltetrahydro-1,3,5-thiadiazin-4-one] | 100 |  | 100 | 100 | 100 | 100 |  |  |  |  |  |
| C=CCN1C(=O)N(c2ccccc2)CSC1=NC(C)C [Compound 141] | 100 | 100 | 80 | 100 | 100 |  |  |  |  |  |  |
| CCC(C)N1C(=O)N(c2ccccc2Cl)CSC1=NC(C)(C)C (stereo not drawn) [Compound 249] | 100 | 100 |  | 100 | 100 |  | 100 | 70 |  |  |  |
| CCN1C(=O)N(c2ccccc2)CSC1=NCC(C)C [Compound 129] |  | 80 | 100 | 100 |  |  |  |  |  |  |  |
| CCC(C)N1C(=O)N(c2ccccc2)CSC1=NC(C)(C)CC(C)(C)C (stereo not drawn) [Compound 157] | 100 | 100 | 100 | 100 |  |  |  |  |  |  |  |
| CC(C)CN1C(=O)N(c2ccccc2)CSC1=NC(C)C [Compound 149, 2-Isopropylimino-3-isobutyl-5-phenyl-tetrahydro-1,3,5-thiadiazin-4-one] | 100 | 100 | 50 | 100 |  |  |  |  |  |  |  |
| CCCN1C(=O)N(c2ccccc2)CSC1=NC(C)CC (stereo not drawn) [Compound 136] | 50 | 80 | 100 | 100 |  |  |  |  |  |  |  |
| CC(C)(C)N=C1SCN(c2ccccc2)C(=O)N1C1CCCCC1 [Compound 155, 2-t-Butylimino-3-cyclohexyl-5-phenyl-tetrahydro-1,3,5-thiadiazin-4-one] | 100 | 50 | 100 | 100 |  |  |  |  |  |  |  |
| CCN=C1SCN(c2ccccc2)C(=O)N1c1ccccc1 [Compound 162] |  | 100 | 50 | 100 |  |  |  |  | 50 |  |  |
| CC(C)CN=C1SCN(c2ccccc2)C(=O)N1CC(C)C [Compound 148] | 100 | 100 |  |  |  |  | 100 |  |  |  |  |
| CCCN=C1SCN(c2ccccc2)C(=O)N1CC [Compound 126] |  | 100 | 100 | 100 |  |  |  |  | 80 |  |  |
| Cc1ccc(N2CSC(=NC(C)C)N(C(C)C)C2=O)cc1 [Compound 316] | 100 | 100 |  | 70 |  | 100 | 100 | 100 |  |  |  |

| SMILES | mortality at 100 ppm [1] [%] | mortality at 400 ppm ([2]; 120 h, 5 days after treatment) [%] | mortality at 10 ppm [3] [%] | mortality at 10 ppm [4] [%] | mortality at 400 ppm [5] [%] | mortality at 400 ppm [6] [%] | Mortality [7] [%] | mortality at 1000 ppm [8, 9] [%] | mortality at 100 ppm [1, 10] [%] | mortality at 400 ppm ([2]; 168 h, 7 days after treatment) [%] | mortality at 1000 ppm [8, 11] [%] |
| --- | --- | --- | --- | --- | --- | --- | --- | --- | --- | --- | --- |
| C=CCN1C(=O)N(c2ccccc2)CSC1=NCCC [Compound 140] | 50 | 100 | 50 | 100 | 100 |  |  |  |  |  |  |
| CC(C)N=C1SCN(C(C)C)C(=O)N1C [Compound 18, 2-Isopropylimino-3-methyl-5-isopropyl-tetrahydro-1,3,5-thiadiazin-4-one] |  |  |  |  | 100 | 100 | 100 |  |  | 100 | 80 |
| C=CCN1C(=O)N(c2ccccc2)CSC1=NC(C)(C)C [Compound 143] | 100 |  | 100 | 80 | 100 |  |  |  |  |  |  |
| CN=C1SCN(C(C)C)C(=O)N1c1ccccc1 [Compound 66, 2-Methylimino-3-phenyl-5-isopropyltetrahydro-1,3,5-thiadiazin-4-one] |  |  |  |  | 80 | 100 | 50 |  |  | 100 | 100 |
| CCCN=C1SCN(c2ccccc2)C(=O)N1CCC [Compound 134] | 80 | 100 | 80 | 80 |  |  |  |  |  |  |  |
| CCN=C1SCN(C(C)(C)C)C(=O)N1c1ccccc1C [Compound 80, 2-Ethylimino-3-o-tolyl-5-t-butyl-tetrahydro-1,3,5-thiadiazin-4-one] |  |  |  |  | 50 | 100 | 100 |  |  | 100 | 80 |
| CCC(C)N1C(=O)N(c2ccc(C)cc2)CSC1=NC(C)(C)C (stereo not drawn) [Compound 319] | 100 | 100 |  | 100 | 100 | 100 | 100 | 100 |  |  |  |
| CCCN=C1SCN(C(C)(C)C)C(=O)N1C [Compound 32] |  |  |  |  | 50 | 100 | 100 |  |  | 100 | 100 |
| CN1C(=O)N(C(C)(C)C)CSC1=NC(C)(C)C [Compound 37] |  |  |  |  | 50 | 100 | 100 |  |  | 100 | 100 |
| CC(C)N1C(=O)N(c2ccccc2)CSC1=NC(C)(C)CC(C)(C)C [Compound 156] | 90 | 100 | 50 | 100 | 100 |  |  |  |  |  |  |
| CCCN1CSC(=NC(C)C)N(C(C)C)C1=O [Compound 14] |  |  |  |  | 100 | 100 | 50 |  |  | 80 | 100 |
| CCC(C)N=C1SCN(C(C)(C)C)C(=O)N1C (stereo not drawn) [Compound 35] |  |  |  |  | 50 | 100 | 100 |  |  | 100 | 100 |
| C=CCN=C1SCN(c2ccccc2)C(=O)N1CC=C [Compound 139] | 100 | 100 | 100 | 100 |  |  |  |  |  |  |  |
| CC(C)CN1C(=O)N(c2ccccc2)CSC1=NC(C)(C)C [Compound 150] | 80 | 100 | 50 | 100 | 90 |  |  |  |  |  |  |
| CN=C1SCN(C(C)(C)C)C(=O)N1C [Compound 31, 2-Methylimino-3-methyl-5-t-butyl-tetrahydro-1,3,5-thiadiazin-4-one] |  |  |  |  | 50 | 100 | 100 |  |  | 80 | 100 |
